This is an account of results in patent US20210186999A1, “METHOD FOR TREATMENT OF CANCER” (National University of Ireland Galway, priority 2017, published 2021).

The subject of experiment [1] is nitric oxide (NO), prostaglandin E2 (PGE2), IL-10 in MLR supernatant. In words: ELISA and Griess assay of immunomodulatory molecules in supernatant of mixed lymphocyte reaction. The conditions noted are these: MSCs cultured with 100 μM inhibitor, FIGS. 4(a)-4(c). The class given is cell-based, BALB/c. As for the experimental part:
Sialic acid content was assayed using lectin coupled flow cytometry. Biotin labelled SNA-I and MAL-II were used to detect a 2-6 sialic acid and a 2-3 sialic acid respectively. Sialyltransferase inhibition was carried out using 100 μM of 3Fax-Peracetyl Neu5Ac. Cells were cultured in the presence of the inhibitor for two successive passages to ensure inhibition.
Both ELISA and the Griess assay were used to determine quantity of immunomodulatory molecules in the supernatant of mixed lymphocyte reaction experiments.

Experiment [2] deals with TNF-α+IL-1β treated MSCs co-cultured with activated T-cells. In words: MSC : T-cell co-culture in mixed lymphocyte reactions (MLRs), flow cytometry. The experiment is classed as cell-based, BALB/c. The conditions noted are these: MSCs cultured with 100 μM inhibitor for two successive passages; MLR co-culture 96 hrs; FIGS. 3(a)-3(c). How it is done:
Materials and Methods Four female BALB/c at approximately 5 to 7 weeks were euthanized and the femur and tibia was dissected and placed in a 50 ml tube with media or PBS. Using a forceps and scissors the bones were cleaned to remove muscles and snipped on both ends to plunge out the marrow into a Petri dish containing MSC medium. A 30G needle fitted on a 1 ml syringe was used to plunge out the marrow and repeated several times till the bones appeared white. The marrow was passed through a 40 μm sieve attached to a 50 ml tube and the sieve was washed twice with medium. Medium was changed, and a cell count was performed. 10 μl cells was mixed with 40 μl PBS and 10 μl 4% acetic acid and cell count was performed. Based on the count approximately 35-50 million cells were seeded per T175 cm flask or 1 animal per flask. After isolation and culturing the MSCs were extensively characterized in vitro before and after treatment with TNF-α+IL-1β.
Sialic acid content was assayed using lectin coupled flow cytometry. Biotin labelled SNA-I and MAL-II were used to detect a 2-6 sialic acid and a 2-3 sialic acid respectively. Sialyltransferase inhibition was carried out using 100 μM of 3Fax-Peracetyl Neu5Ac. […]
MSC and TNF-α+IL-1βMSC were co-cultured at different MSC: T-cell ratios for 96 hrs. T-cell proliferation, activation, death and differentiation were determined by flow cytometry.
(Flow cytometry measures light scatter and fluorescence of single cells or particles in a stream.)

As to `COC(=O)C1(OC(C)=O)OC(C(OC(C)=O)C(COC(C)=O)OC(C)=O)C(NC(C)=O)C(OC(C)=O)C1F` (stereo not drawn) [3Fax-Peracetyl Neu5Ac], the “dependence of restored T-cell proliferation on NO, PGE2 and IL-10” value in experiment [1] is “independent of nitric oxide (NO), prostaglandin E2 (PGE2), and IL-10”. Further, in experiment [2], the “proliferation of T-cells (CD4+, CD8+) in co-culture with inhibitor-treated MSCs” value is given as “restored proliferation of T-cells” and the “suppression of activated T-cells by TNF-α+IL-1β treated MSCs exposed to the sialyltransferase inhibitor” value was “not as effective at suppressing activated T-cells”.
